Assay results from patent publication US20230398178A1, “METHODS AND COMPOSITIONS FOR TREATING OR PREVENTING A VAGINAL INFECTION OF GARDNERELLA VAGINALIS” (Massachusetts Institute of Technology, priority 2022, published 2023).
“Also recorded” adds a separate entry of the source.

Tested on: vaginolysin (vly)
Type: cell-based, Gardnerella vaginalis

## C[C@@H](O)[C@H](O)[C@H](O)[C@@H](O)C=O [D-fucose, 6-deoxy-D-galactose]
  effect on vly expression, in words: expressed less vaginolysin; also recorded: significantly reduce vly expression
